According to patent US12643871B2, “Aryl formamide compound containing chiral sulfur oxide or salt thereof, preparation method, herbicidal composition and use thereof” (Qingdao Kingagroot Chemical Compound Co., Ltd., priority 2019, dated 2026):

Legend:
[1] = test system: Leptochloa chinensis; experiment: Weed control effect evaluation in rice field; assay type: in vivo; details: rice field pot, 14 days after treatment
Source text: (§1) The activity level criteria for harmful plant damage (i.e., growth control rate) are as follows: • Level 5: growth control rate is above 85%; • Level 4: growth control rate is greater than or equal to 60% and less than 85%; • Level 3: growth control rate is greater than or equal to 40% and less than 60%; • Level 2: growth control rate is greater than or equal to 20% and less than 40%; • Level 1: growth control rate is greater than or equal to 5% and less than 20%; • Level 0: growth control rate is less than 5%.
(§2) Rice field soil was loaded into a 1/1,000,000 ha pot. The seeds of Echinochloa crusgali, Scirpus juncoides, Bidens tripartita, Sagittaria trifolia, Monochoria vaginalis and Leptochloa chinensis were sowed and gently covered with soil, then left to stand still in greenhouse in the state of 0.5-1 cm of water storage. The tuber of Sagittaria trifolia was planted in the next day or 2 days later. It was kept at 3-4 cm of water storage thereafter. The weeds were treated by dripping the WP or SC water diluents prepared according to the common preparation method of the compounds of the present invention with pipette homogeneously to achieve specified effective amount when Echinochloa crusgali, Scirpus juncoides, Bidens tripartita, Monochoria vaginalis and Leptochloa chinensis reached 0.5 leaf stage and Sagittaria trifolia reached the time point of primary leaf stage.
(§3) The fertility condition of Echinochloa crusgali, Scirpus juncoides, Bidens tripartita, Leptochloa chinensis, Sagittaria trifolia and Monochoria vaginalis 14 days after the treatment of the compound of the invention and the fertility condition of rice 21 days after the treatment of the compound of the invention respectively with the naked eye. Evaluate the weed control effect with 0-5 activity standard level. Many compounds show excellent activity and selectivity.

[2] = test system: Sagittaria trifolia; experiment: Weed control effect evaluation in rice field; assay type: in vivo; details: rice field pot, 14 days after treatment, ALS-inhibitor resistant weed from Heilongjiang
Source text: as §1, §2, §3

[3] = test system: Echinochloa crusgali; experiment: Weed control effect evaluation in rice field; assay type: in vivo; details: rice field pot, 14 days after treatment, ALS-inhibitor resistant weed from Heilongjiang
Source text: as §1, §2, §3

[4] = test system: Monochoria vaginalis; experiment: Weed control effect evaluation in rice field; assay type: in vivo; details: rice field pot, 14 days after treatment, ALS-inhibitor resistant weed from Heilongjiang
Source text: as §1, §2, §3

[5] = test system: Rice; experiment: Transplanted rice safety evaluation; assay type: in vivo, rice (japonica rice/Indica rice); details: 60 g/ha; transplanted 3 leaf stage rice, 21 days after treatment
Source text: as §1
In addition, the rice field soil that loaded into the 1/1,000,000 ha pot was leveled to keep water storage at 3-4 cm depth. The 3 leaf stage rice (japonica rice/Indica rice) was transplanted at 3 cm of transplanting depth the next day. The compound of the present invention was treated by the same way after 5 days of transplantation.
as §3

[6] = test system: Abutilon theophrasti; experiment: Weeding effect in post-emergence stage; assay type: in vivo; details: 250 g/ha; 2 leaf stage; 15 days after application; fresh weight control rate
Summary of the method: (§4)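 Activity graded 0 (<5%) to 5 (>85%) from fresh-weight control rate, averaged over three repeats, 15 days after a spray-tower application. Plants at 2-leaf stage (2 weeks post-sowing) received 15–500 g/ha of compound formulated in acetone, Tween 80 and methyl oleate synergist (1.5 L/ha).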

[7] = test system: Setaria viridis; experiment: Weeding effect in post-emergence stage; assay type: in vivo; details: 250 g/ha; 2 leaf stage; 15 days after application; fresh weight control rate
Summary of the method: as §4

[8] = test system: Amaranthus retroflexus; experiment: Weeding effect in post-emergence stage; assay type: in vivo; details: 250 g/ha; 2 leaf stage; 15 days after application; fresh weight control rate
Summary of the method: as §4

[9] = test system: Echinochloa crusgali; experiment: Weeding effect in post-emergence stage; assay type: in vivo; details: 250 g/ha; 2 leaf stage; 15 days after application; fresh weight control rate
Summary of the method: as §4

[10] = test system: Digitaria sanguinalis; experiment: Weeding effect in post-emergence stage; assay type: in vivo; details: 250 g/ha; 2 leaf stage; 15 days after application; fresh weight control rate
Summary of the method: as §4

[11] = test system: Green Setaria viridis; experiment: Comparison experiment (post-emergence) against racemate / S configuration; assay type: in vivo; details: 30 g/ha; Table 6, post-seedling test conditions
Source text: (§5) The above growth control rates are fresh weight control rates.
Experiment on weeding effect in post-emergence stage: monocotyledonous and dicotyledonous weed seeds (Descurainia sophia, Capsella bursa-pastoris, Galium aparine, Stellaria media, Lithospermum arvense, Rorippa indica, Alopecurus aequalis, Beckmannia syzigachne, Sclerochloa dura, Phleum paniculatum, Bromus japonicus, Aegilops tauschii, Phalaris arundinacea, Amaranthus retroflexus, Chenopodiaceae, Commelina communis, Sonchus arvensis, convolvulus arvensis, Cirsium setosum, Solanum nigrum, Acalypha australis, Digitaria sanguinalis, Echinochloa crusgalli, Setaria viridis, Setaria glauca, Leptochloa chinensis, Monochoria vaginalis, Sagittaria trifolia, Scirpus juncoides, Cyperus rotundus, Cyperus iria, Cyperus difformis, Fimbristylis, Portulaca oleracea, Xanthium sibiricum, Pharbitis nil) and major crop seeds (wheat, corn, rice, soybean, cotton, oilseed rape, millet, sorghum, potato, sesame, ricinus) were placed in plastic pots filled with soil, then covered with 0.5-2 cm of soil, allowed to grow in a good greenhouse environment. […] The tested compounds of the present invention were respectively dissolved in acetone, then added with Tween 80 and 1.5 liter/ha of emulsifiable concentrate of methyl oleate as synergist, diluted with a certain amount of water to obtain a solution with a certain concentration, and sprayed with a spray tower onto the plants. […]
(§6) If there is no clear marker, the post-seedling test conditions are the same as above, and the experimental results are shown in Tables 4-7.

[12] = test system: Alopecurus japonicas; experiment: as above; assay type: in vivo; details: Table 6, post-seedling test conditions
Source text: as §5
(§7) Experiment on weeding effect in post-emergence stage: monocotyledonous and dicotyledonous weed seeds (Descurainia sophia, Capsella bursa-pastoris, Galium aparine, Stellaria media, Lithospermum arvense, Rorippa indica, Alopecurus aequalis, Beckmannia syzigachne, Sclerochloa dura, Phleum paniculatum, Bromus japonicus, Aegilops tauschii, Phalaris arundinacea, Amaranthus retroflexus, Chenopodiaceae, Commelina communis, Sonchus arvensis, convolvulus arvensis, Cirsium setosum, Solanum nigrum, Acalypha australis, Digitaria sanguinalis, Echinochloa crusgalli, Setaria viridis, Setaria glauca, Leptochloa chinensis, Monochoria vaginalis, Sagittaria trifolia, Scirpus juncoides, Cyperus rotundus, Cyperus iria, Cyperus difformis, Fimbristylis, Portulaca oleracea, Xanthium sibiricum, Pharbitis nil) and major crop seeds (wheat, corn, rice, soybean, cotton, oilseed rape, millet, sorghum, potato, sesame, ricinus) were placed in plastic pots filled with soil, then covered with 0.5-2 cm of soil, allowed to grow in a good greenhouse environment. After 2 weeks of sowing, the test plants were treated in the 2 leaf stage. The tested compounds of the present invention were respectively dissolved in acetone, then added with Tween 80 and 1.5 liter/ha of emulsifiable concentrate of methyl oleate as synergist, diluted with a certain amount of water to obtain a solution with a certain concentration, and sprayed with a spray tower onto the plants. After the application, the plants were cultured for 15 days in the greenhouse, and then the experimental results of the weeding were counted. The doses of the used compounds were 500, 250, 125, 60, 30, 15 g/ha, and the averages were obtained by repeating for three times.
as §6

[13] = test system: Digitaria sanguinalis; experiment: as above; assay type: in vivo; details: Table 6, post-seedling test conditions
Source text: as §5, §7, §6

| SMILES | Herbicidal effects of compounds, Leptochloa chinensis, 0-5 activity standard level ([1]; 60 g/ha) | Herbicidal effects of compounds, Sagittaria trifolia, 0-5 activity standard level ([2]; 60 g/ha) | Herbicidal effects of compounds, Echinochloa crusgali, 0-5 activity standard level ([3]; 60 g/ha) | Herbicidal effects of compounds, Monochoria vaginalis, 0-5 activity standard level ([4]; 60 g/ha) | Herbicidal effects of compounds, Rice, 0-5 activity standard level [5] | weeding effect in post-emergence stage, activity level (growth control rate), Abutilon theophrasti [6] | weeding effect in post-emergence stage, activity level (growth control rate), Setaria viridis [7] | weeding effect in post-emergence stage, activity level (growth control rate), Amaranthus retroflexus [8] | weeding effect in post-emergence stage, activity level (growth control rate), Echinochloa crusgali [9] | weeding effect in post-emergence stage, activity level (growth control rate), Digitaria sanguinalis [10] | Results of comparison experiment, Green Setaria viridis (30 g/ha) [11] | Results of comparison experiment, Alopecurus japonicas (120 g/ha) [12] | further results |
| --- | --- | --- | --- | --- | --- | --- | --- | --- | --- | --- | --- | --- | --- |
| Cc1nnc(NC(=O)c2ccc(C(F)(F)F)c([S@+]([O-])CC(C)C)c2F)o1 [Compound 6] | 5 (Level 5: growth control rate is above 85%) | 5 (Level 5: growth control rate is above 85%) | 5 (Level 5: growth control rate is above 85%) | 5 (Level 5: growth control rate is above 85%) | 0 (Level 0: growth control rate is less than 5%) | 5 (Level 5: growth control rate is above 85%) | 5 (Level 5: growth control rate is above 85%) | 5 (Level 5: growth control rate is above 85%) | 5 (Level 5: growth control rate is above 85%) | 5 (Level 5: growth control rate is above 85%) | – | – | – |
| Cc1nnc(NC(=O)c2ccc(C(F)(F)F)c([S@+]([O-])CCCCl)c2F)o1 [Compound 37] | 5 (Level 5: growth control rate is above 85%) | 5 (Level 5: growth control rate is above 85%) | 5 (Level 5: growth control rate is above 85%) | 5 (Level 5: growth control rate is above 85%) | 0 (Level 0: growth control rate is less than 5%) | 5 (Level 5: growth control rate is above 85%) | 5 (Level 5: growth control rate is above 85%) | 5 (Level 5: growth control rate is above 85%) | 5 (Level 5: growth control rate is above 85%) | 5 (Level 5: growth control rate is above 85%) | – | – | – |
| Cc1nnc(NC(=O)c2ccc(C(F)(F)F)c([S@+]([O-])C3COC3)c2F)o1 [Compound 79] | 5 (Level 5: growth control rate is above 85%) | 5 (Level 5: growth control rate is above 85%) | 5 (Level 5: growth control rate is above 85%) | 5 (Level 5: growth control rate is above 85%) | 0 (Level 0: growth control rate is less than 5%) | 5 (Level 5: growth control rate is above 85%) | 5 (Level 5: growth control rate is above 85%) | 5 (Level 5: growth control rate is above 85%) | 5 (Level 5: growth control rate is above 85%) | 5 (Level 5: growth control rate is above 85%) | – | – | – |
| CCSc1c(C(F)(F)F)ccc(C(=O)Nc2nnc(C)o2)c1SC [Control Compound D′] | – | – | – | – | – | – | – | – | – | – | 20% | 0% | pest or weed control at 30 g/ha ([13]; Digitaria sanguinalis, post-emergence): 20% |
| CSc1c(C(=O)Nc2nnc(C)o2)ccc(C(F)(F)F)c1[S+](C)[O-] (stereo not shown) [Control Compound E′] | – | – | – | – | – | – | – | – | – | – | 40% | 15% | Results of comparison experiment, Digitaria sanguinalis (30 g/ha) [13]: 40% |
| CSc1c(C(=O)Nc2nnc(C)o2)ccc(C(F)(F)F)c1[S+](C)[O-] (stereo not shown) [Control Compound F′] | – | – | – | – | – | – | – | – | – | – | 5% | 0% | Results of comparison experiment, Digitaria sanguinalis (30 g/ha) [13]: 0% |
| COc1cnc(OC)n2nc(NS(=O)(=O)c3c(OCC(F)F)cccc3C(F)(F)F)nc12 [Penoxsulam, reference compound] | – | – | – | – | – | – | – | – | – | – | – | – | Herbicidal effects of compounds, Leptochloa chinensis, 0-5 activity standard level ([1]; 30 g/ha): 1 (Level 1: growth control rate is greater than or equal to 5% and less than 20%); Herbicidal effects of compounds, Sagittaria trifolia, 0-5 activity standard level ([2]; 30 g/ha): 0 (Level 0: growth control rate is less than 5%); Herbicidal effects of compounds, Echinochloa crusgali, 0-5 activity standard level ([3]; 30 g/ha): 0 (Level 0: growth control rate is less than 5%); Herbicidal effects of compounds, Monochoria vaginalis, 0-5 activity standard level ([4]; 30 g/ha): 1 (Level 1: growth control rate is greater than or equal to 5% and less than 20%) |
